Test results: patent publication US12091385B2, “Pyridinylcyanoguanidine derivative and use thereof” (Rushi Biotech (Hangzhou) Co., Ltd, priority 2021, dated 2024)

Legend:
Type in all cases: cell-based
[1] = test system: Human lung adenocarcinoma cell A549; experiment: CCK-8 cell proliferation assay, A549; details: A549 cells, 72 hrs with drug, CCK-8, OD 450 nm
Protocol: (§1) The effect of samples on the proliferation of human tumor cells in vitro was determined by CCK-8 cell proliferation assay.
(§2) The cells were assayed through a method including the following steps: • 1) The cells were digested, counted, and prepared into a cell suspension in a corresponding culture medium (Table 1) (5×10^4 cells/ml for CFPAC-1 and RPMI 8226, and 3.5×10^4 cells/ml for rest cells). The cell suspension was added to each well of a 96-well plate in 100 μl/well. • 2) Then the 96-well plate was incubated for 24 hrs in an incubator at 37° C. and 5% CO2. • 3) The drug was diluted with the culture medium to the required working concentration. 100 μl of the corresponding drug containing medium was added to each well.

[2] = test system: Human hepatoma cell HepG2; experiment: CCK-8 cell proliferation assay, HepG2; details: HepG2 cells, 72 hrs with drug, CCK-8, OD 450 nm
Protocol: as §1, §2

[3] = test system: Human esophageal cancer cell TE-1; experiment: CCK-8 cell proliferation assay, TE-1; details: TE-1 cells, 72 hrs with drug, CCK-8, OD 450 nm
Protocol: as §1, §2

[4] = test system: Human gastric cancer cell MKN45; experiment: CCK-8 cell proliferation assay, MKN45; details: MKN-45 cells, 72 hrs with drug, CCK-8, OD 450 nm
Protocol: as §1, §2

[5] = test system: Human colon cancer cell HCT-116; experiment: CCK-8 cell proliferation assay, HCT-116; details: HCT116 cells, 72 hrs with drug, CCK-8, OD 450 nm
Protocol: as §1, §2

[6] = test system: Human multiple myeloma cell RPMI 8226; experiment: CCK-8 cell proliferation assay, RPMI 8226; details: RPMI8226 cells, 72 hrs with drug, CCK-8, OD 450 nm
Protocol: as §1, §2

[7] = test system: Human pancreatic cancer cell CFPAC-1; experiment: CCK-8 cell proliferation assay, CFPAC-1; details: CFPAC-1 cells, 72 hrs with drug, CCK-8, OD 450 nm
Protocol: as §1, §2

## N#CN=C(NCCCCCC1CCN(C(=O)c2cccs2)C1)Nc1cccnc1 (stereo not drawn) [BSS-PC043, 2-cyano-1-(5-(1-(2-thienylformyl)pyrrolidine-3-yl)pentyl)-3-(3-pyridinyl)guanidine]
[1]
  IC50: 45 nM
[2]
  IC50: 83 nM
[3]
  IC50: 92 nM
[4]
  IC50: 69 nM
[5]
  IC50: 51 nM
[6]
  IC50: 29 nM
[7]
  IC50: 36 nM

## N#CN=C(NCCCCCN1CCN(C(=O)C2CCCO2)CC1)Nc1ccncc1 (stereo not drawn) [BSS-PC011]
[1]
  IC50: 40 nM
[2]
  IC50: 52 nM
[3]
  IC50: 47 nM
[4]
  IC50: 61 nM
[5]
  IC50: 49 nM
[6]
  IC50: 42 nM
[7]
  IC50: 39 nM

## N#CN=C(NCCCCCN1CCN(C(=O)c2[nH]ccc2F)CC1)Nc1ccncc1 [BSS-PC024, 2-cyano-1-(5-(1-(3-fluoro-2-pyrrolylformyl)piperazine-4-yl)pentyl)-3-(4-pyridinyl)guanidine]
[1]
  IC50: 53 nM
[2]
  IC50: 51 nM
[3]
  IC50: 49 nM
[4]
  IC50: 41 nM
[5]
  IC50: 50 nM
[6]
  IC50: 21 nM
[7]
  IC50: 37 nM

## N#CN=C(NCCCCCC1CCN(C(=O)c2ccccc2)C1)Nc1ccncc1 (stereo not drawn) [BSS-PC028, 2-cyano-1-(5-((1-benzoyl)pyrrolidine-3-yl)pentyl)-3-(4-pyridinyl)guanidine]
[1]
  IC50: 50 nM
[2]
  IC50: 51 nM
[3]
  IC50: 55 nM
[4]
  IC50: 39 nM
[5]
  IC50: 66 nM
[6]
  IC50: 31 nM
[7]
  IC50: 35 nM

## N#CN=C(NCCCCCCC1CCN(C(=O)c2cc3ccccc3[nH]2)C1)Nc1ccncc1 (stereo not drawn) [BSS-PC071, 2-cyano-1-(6-(1-(2-indolylformyl)pyrrolidine-3-yl)hexyl)-3-(4-pyridinyl)guanidine]
[1]
  IC50: 75 nM
[2]
  IC50: 153 nM
[3]
  IC50: 106 nM
[4]
  IC50: 65 nM
[5]
  IC50: 72 nM
[6]
  IC50: 49 nM
[7]
  IC50: 61 nM

## N#CN=C(NCCCCCN1CCN(C(=O)c2occc2F)CC1)Nc1ccncc1 [BSS-PC023, 2-cyano-1-(5-(1-(3-fluoro-2-furylformyl)piperazine-4-yl)pentyl)-3-(4-pyridinyl)guanidine]
[1]
  IC50: 42 nM
[2]
  IC50: 57 nM
[3]
  IC50: 43 nM
[4]
  IC50: 430 nM
[5]
  IC50: 52 nM
[6]
  IC50: 30 nM
[7]
  IC50: 39 nM

## N#CN=C(NCCCCCN1CCN(C(=O)c2cc3ccccc3o2)CC1)Nc1ccncc1 [BSS-PC022, 2-cyano-1-(5-(1-(2-benzofurylformyl)piperazine-4-yl)pentyl)-3-(4-pyridinyl)guanidine]
[1]
  IC50: 70 nM
[2]
  IC50: 88 nM
[3]
  IC50: 83 nM
[4]
  IC50: 65 nM
[5]
  IC50: 81 nM
[6]
  IC50: 52 nM
[7]
  IC50: 59 nM

## N#CN=C(NCCCCCC1CCN(C(=O)c2ccco2)C1)Nc1ccncc1 (stereo not drawn) [BSS-PC032, 2-cyano-1-(5-(1-(furoyl)pyrrolidine-3-yl)pentyl)-3-(4-pyridinyl)guanidine]
[1]
  IC50: 26 nM
[2]
  IC50: 68 nM
[3]
  IC50: 57 nM
[4]
  IC50: 61 nM
[5]
  IC50: 52 nM
[6]
  IC50: 29 nM
[7]
  IC50: 25 nM

## N#CN=C(NCCCCCCC1CCN(C(=O)c2ccco2)C1)Nc1cc(F)nc(F)c1 (stereo not drawn) [BSS-PC076]
[1]
  IC50: 33 nM
[2]
  IC50: 42 nM
[3]
  IC50: 46 nM
[4]
  IC50: 45 nM
[5]
  IC50: 53 nM
[6]
  IC50: 26 nM
[7]
  IC50: 29 nM

## N#CN=C(NCCCCCCC1CCN(C(=O)c2ccco2)C1)Nc1ccncc1 (stereo not drawn) [BSS-PC057, 2-cyano-1-(6-(1-(furoyl)pyrrolidine-3-yl)hexyl)-3-(4-pyridinyl)guanidine]
[1]
  IC50: 53 nM
[2]
  IC50: 64 nM
[3]
  IC50: 60 nM
[4]
  IC50: 31 nM
[5]
  IC50: 69 nM
[6]
  IC50: 51 nM
[7]
  IC50: 37 nM

## N#CN=C(NCCCCCCC1CCN(C(=O)C2CCCS2)C1)Nc1cccnc1 (stereo not drawn) [BSS-PC063, 2-cyano-1-(6-(1-(2-tetrahydrothienylformyl)pyrrolidine-3-yl)hexyl)-3-(3-pyridinyl)guanidine]
[1]
  IC50: 69 nM
[2]
  IC50: 90 nM
[3]
  IC50: 83 nM
[4]
  IC50: 62 nM
[5]
  IC50: 109 nM
[6]
  IC50: 40 nM
[7]
  IC50: 46 nM

## N#CN=C(NCCCCCC1CCN(C(=O)c2ccc[nH]2)C1)Nc1ccncc1 (stereo not drawn) [BSS-PC033, 2-cyano-1-(5-(1-(2-pyrrolylformyl)pyrrolidine-3-yl)pentyl)-3-(4-pyridinyl)guanidine]
[1]
  IC50: 51 nM
[2]
  IC50: 76 nM
[3]
  IC50: 67 nM
[4]
  IC50: 33 nM
[5]
  IC50: 42 nM
[6]
  IC50: 17 nM
[7]
  IC50: 29 nM

## O=C(/C=C/c1cccnc1)NCCCCC1CCN(C(=O)c2ccccc2)CC1 [FK866, reference compound]
[1]
  IC50: 37 nM
[2]
  IC50: 99 nM
[3]
  IC50: 112 nM
[4]
  IC50: 39 nM
[5]
  IC50: 92 nM
[6]
  IC50: 20 nM
[7]
  IC50: 37 nM

## N#CN=C(NCCCCCC1CCN(C(=O)c2[nH]ccc2F)C1)Nc1ccncc1 (stereo not drawn) [BSS-PC049, 2-cyano-1-(5-(1-(3-fluoro-2-pyrrolylformyl)pyrrolidine-3-yl)pentyl)-3-(4-pyridinyl)guanidine]
[1]
  IC50: 35 nM
[2]
  IC50: 57 nM
[3]
  IC50: 74 nM
[4]
  IC50: 42 nM
[5]
  IC50: 55 nM
[6]
  IC50: 29 nM
[7]
  IC50: 31 nM

## N#CN=C(NCCCCCC1CCN(C(=O)c2cc3ccccc3[nH]2)C1)Nc1ccncc1 (stereo not drawn) [BSS-PC045, 2-cyano-1-(5-(1-(2-indolylformyl)pyrrolidine-3-yl)pentyl)-3-(4-pyridinyl)guanidine]
[1]
  IC50: 79 nM
[2]
  IC50: 117 nM
[3]
  IC50: 90 nM
[4]
  IC50: 58 nM
[5]
  IC50: 86 nM
[6]
  IC50: 52 nM
[7]
  IC50: 64 nM

## N#CN=C(NCCCCCN1CCN(C(=O)C2Cc3ccccc3O2)CC1)Nc1ccncc1 (stereo not drawn) [BSS-PC021, 2-cyano-1-(5-(1-(2-benzotetrahydrofurylfuryl)piperazine-4-yl)pentyl)-3-(4-pyridinyl)guanidine]
[1]
  IC50: 79 nM
[2]
  IC50: 93 nM
[3]
  IC50: 118 nM
[4]
  IC50: 65 nM
[5]
  IC50: 106 nM
[6]
  IC50: 49 nM
[7]
  IC50: 55 nM

## N#CN=C(NCCCCCC1CCN(C(=O)C2CCCN2)C1)Nc1ccncc1 (stereo not drawn) [BSS-PC035, 2-cyano-1-(5-(1-(2-pyrrolidinylformyl)pyrrolidine-3-yl)pentyl)-3-(4-pyridinyl)guanidine]
[1]
  IC50: 32 nM
[2]
  IC50: 86 nM
[3]
  IC50: 79 nM
[4]
  IC50: 41 nM
[5]
  IC50: 33 nM
[6]
  IC50: 27 nM
[7]
  IC50: 16 nM

## N#CN=C(NCCCCCCC1CCN(C(=O)c2ccco2)C1)Nc1cccnc1 (stereo not drawn) [BSS-PC062, 2-cyano-1-(6-(1-(furoyl)pyrrolidine-3-yl)hexyl)-3-(3-pyridinyl)guanidine]
[1]
  IC50: 46 nM
[2]
  IC50: 58 nM
[3]
  IC50: 49 nM
[4]
  IC50: 39 nM
[5]
  IC50: 47 nM
[6]
  IC50: 23 nM
[7]
  IC50: 34 nM

## N#CN=C(NCCCCCCC1CCN(C(=O)C2CCCS2)C1)Nc1ccncc1 (stereo not drawn) [BSS-PC058, 2-cyano-1-(6-(1-(2-tetrahydrothienylformyl)pyrrolidine-3-yl)hexyl)-3-(4-pyridinyl)guanidine]
[1]
  IC50: 42 nM
[2]
  IC50: 75 nM
[3]
  IC50: 71 nM
[4]
  IC50: 69 nM
[5]
  IC50: 82 nM
[6]
  IC50: 43 nM
[7]
  IC50: 52 nM

## N#CN=C(NCCCCCC1CCN(C(=O)c2occc2F)C1)Nc1ccncc1 (stereo not drawn) [BSS-PC048, 2-cyano-1-(5-(1-(3-fluoro-2-furylformyl)pyrrolidine-3-yl)pentyl)-3-(4-pyridinyl)guanidine]
[1]
  IC50: 42 nM
[2]
  IC50: 47 nM
[3]
  IC50: 51 nM
[4]
  IC50: 34 nM
[5]
  IC50: 60 nM
[6]
  IC50: 33 nM
[7]
  IC50: 36 nM

## N#CN=C(NCCCCCN1CCN(C(=O)c2ccccc2)CC1)Nc1cccnc1 [BSS-PC019, 2-cyano-1-(5-((1-benzoyl)piperazine-4-yl)pentyl)-3-(3-pyridinyl)guanidine]
[1]
  IC50: 71 nM
[2]
  IC50: 83 nM
[3]
  IC50: 64 nM
[4]
  IC50: 52 nM
[5]
  IC50: 73 nM
[6]
  IC50: 38 nM
[7]
  IC50: 46 nM

## N#CN=C(NCCCCCN1CCN(C(=O)c2ccco2)CC1)Nc1cccnc1 [BSS-PC026, 2-cyano-1-(5-((1-furoyl)piperazine-4-yl)pentyl)-3-(3-pyridinyl)guanidine]
[1]
  IC50: 32 nM
[2]
  IC50: 55 nM
[3]
  IC50: 72 nM
[4]
  IC50: 30 nM
[5]
  IC50: 73 nM
[6]
  IC50: 20 nM
[7]
  IC50: 31 nM

## N#CN=C(NCCCCCC1CCN(C(=O)C2CCCS2)C1)Nc1ccncc1 (stereo not drawn) [BSS-PC034, 2-cyano-1-(5-(1-(2-tetrahydrothienylformyl)pyrrolidine-3-yl)pentyl)-3-(4-pyridinyl)guanidine]
[1]
  IC50: 23 nM
[2]
  IC50: 37 nM
[3]
  IC50: 39 nM
[4]
  IC50: 31 nM
[5]
  IC50: 27 nM
[6]
  IC50: 18 nM
[7]
  IC50: 23 nM

## N#CN=C(NCCCCCCC1CCN(C(=O)c2cc3ccccc3o2)C1)Nc1ccncc1 (stereo not drawn) [BSS-PC072, 2-cyano-1-(6-(1-(2-benzofurylformyl)pyrrolidine-3-yl)hexyl)-3-(4-pyridinyl)guanidine]
[1]
  IC50: 64 nM
[2]
  IC50: 98 nM
[3]
  IC50: 92 nM
[4]
  IC50: 43 nM
[5]
  IC50: 92 nM
[6]
  IC50: 41 nM
[7]
  IC50: 47 nM
